Measured values from PubChem BioAssay AID330 (DTP/NCI, 2004).
Where “and” joins values, the source holds several entries; their conditions need not be identical. Equal entries are not always repeated. Toxic doses and inconclusive results are not listed. The calls were made as follows: active = survival T/C of 150% or more; inactive = T/C below 125% in these data.

Test system: P388 leukemia ip, CD2F1 mice, survival T/C
Experiment: NCI In Vivo Anticancer Drug Screen. Data for tumor model P388 Leukemia (intraperitoneal) in CD2F1 (CDF1) mice
Details: endpoint: median survival time, higher = longer survival
Method in brief: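 Mice carrying the transplanted tumor received test compound or vehicle. Survival was recorded in each group, and the value is the treated-group measurement divided by that of the vehicle-treated control group.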

[1] = dose: 60.0 mg/kg/injection, schedule: Q01DX005 (ip), vehicle: saline with Tween-80
[2] = dose: 120.0 mg/kg/injection, schedule: Q01DX005 (ip), vehicle: saline with Tween-80
[3] = dose: 240.0 mg/kg/injection, schedule: Q01DX005 (ip), vehicle: saline with Tween-80
[4] = dose: 100.0 mg/kg/injection, schedule: Q01DX001 (ip), vehicle: saline with Tween-80
[5] = dose: 200.0 mg/kg/injection, schedule: Q01DX001 (ip), vehicle: saline with Tween-80
[6] = dose: 400.0 mg/kg/injection, schedule: Q01DX001 (ip), vehicle: saline with Tween-80
[7] = dose: 50.0 mg/kg/injection, schedule: Q01DX005 (ip), vehicle: saline with Tween-80
[8] = dose: 100.0 mg/kg/injection, schedule: Q01DX005 (ip), vehicle: saline with Tween-80
[9] = dose: 200.0 mg/kg/injection, schedule: Q01DX005 (ip), vehicle: saline with Tween-80
[10] = dose: 12.5 mg/kg/injection, schedule: Q01DX009 (ip), vehicle: saline with Tween-80
[11] = dose: 25.0 mg/kg/injection, schedule: Q01DX009 (ip), vehicle: saline with Tween-80
[12] = dose: 50.0 mg/kg/injection, schedule: Q01DX009 (ip), vehicle: saline with Tween-80
[13] = dose: 15.0 mg/kg/injection, schedule: Q01DX005 (ip), vehicle: saline with Tween-80
[14] = dose: 30.0 mg/kg/injection, schedule: Q01DX005 (ip), vehicle: saline with Tween-80
[15] = dose: 100.0 mg/kg/injection, schedule: Q01DX009 (ip), vehicle: saline with Tween-80
[16] = dose: 50.0 mg/kg/injection, schedule: Q01DX009 (ip), vehicle: saline
[17] = dose: 100.0 mg/kg/injection, schedule: Q01DX009 (ip), vehicle: saline
[18] = dose: 200.0 mg/kg/injection, schedule: Q01DX009 (ip), vehicle: saline
[19] = dose: 12.5 mg/kg/injection, schedule: Q01DX009 (ip), vehicle: saline
[20] = dose: 25.0 mg/kg/injection, schedule: Q01DX009 (ip), vehicle: saline
[21] = dose: 200.0 mg/kg/injection, schedule: Q01DX009 (ip), vehicle: saline with Tween-80

Measured: T/C

COc1ccc(NC(=O)C(COCc2ccccc2)C(C)=O)cc1 (centres undefined)
inactive: [1] 94 % of control | [2] 91 % of control | [3] 92 % of control

CCN(CC)CCNC(=O)c1cc(Cl)c(N)cc1OC
inactive: dose: 3.12 mg/kg/injection, schedule: Q01DX005 (ip), vehicle: water 100 % of control and 105 % of control | dose: 6.25 mg/kg/injection, schedule: Q01DX005 (ip), vehicle: water 108 % of control and 95 % of control | dose: 12.5 mg/kg/injection, schedule: Q01DX005 (ip), vehicle: water 104 % of control and 105 % of control | dose: 25.0 mg/kg/injection, schedule: Q01DX005 (ip), vehicle: water 104 % of control and 107 % of control | dose: 50.0 mg/kg/injection, schedule: Q01DX005 (ip), vehicle: water 103 % of control and 111 % of control and 122 % of control | dose: 100.0 mg/kg/injection, schedule: Q01DX005 (ip), vehicle: water 100 % of control and 106 % of control and 117 % of control

Cc1nn(-c2ccccc2)c(=O)n2c(-n3c(C)nn(-c4ccccc4)c3=O)nnc12
inactive: [4] 102 % of control | [5] 105 % of control | [6] 99 % of control

CN(c1ccccc1)c1nnnn1-c1ccccc1
inactive: dose: 50.0 mg/kg/injection, schedule: Q04DX003 (ip), vehicle: saline with Tween-80 95 % of control | dose: 100.0 mg/kg/injection, schedule: Q04DX003 (ip), vehicle: saline with Tween-80 104 % of control | dose: 200.0 mg/kg/injection, schedule: Q04DX003 (ip), vehicle: saline with Tween-80 111 % of control

Nc1nnc(Cc2nnc(N)o2)o1
inactive: [7] 101 % of control | [8] 101 % of control | [9] 98 % of control

NC(=O)C1CCC(c2ccccc2)(c2ccccc2)C1=O (centres undefined)
inactive: dose: 100.0 mg/kg/injection, schedule: Q04DX002 (ip), vehicle: saline with Tween-80 99 % of control | dose: 200.0 mg/kg/injection, schedule: Q04DX002 (ip), vehicle: saline with Tween-80 105 % of control | dose: 400.0 mg/kg/injection, schedule: Q04DX002 (ip), vehicle: saline with Tween-80 101 % of control

NC(=S)N/N=C/c1c(O)c2cc(Cl)ccc2[nH]c1=O
inactive: [7] 106 % of control | [8] 112 % of control | [9] 112 % of control

CC(C(=O)O)c1ccc2c(c1)Cc1ccccc1-2 (centres undefined)
inactive: [10] 108 % of control | [11] 106 % of control | [12] 105 % of control and 86 % of control

CN1C2=C(C(=O)CC2)C(c2ccccc2)C2=C1CCC2=O
inactive: [4] 96 % of control | [5] 96 % of control | [6] 96 % of control

CC(C)(C)c1cc(CO)c(Sc2c(CO)cc(C(C)(C)C)cc2CO)c(CO)c1
inactive: dose: 12.5 mg/kg/injection, schedule: Q01DX001 (ip), vehicle: saline with Tween-80 92 % of control | dose: 25.0 mg/kg/injection, schedule: Q01DX001 (ip), vehicle: saline with Tween-80 100 % of control | dose: 50.0 mg/kg/injection, schedule: Q01DX001 (ip), vehicle: saline with Tween-80 95 % of control

O=C(NN(Cn1c(=S)sc2ccccc21)Cn1c(=S)sc2ccccc21)c1ccccc1O
inactive: dose: 50.0 mg/kg/injection, schedule: Q01DX005 (ip), vehicle: Klucel (hydroxypropylcellulose) (HPC) 89 % of control | dose: 100.0 mg/kg/injection, schedule: Q01DX005 (ip), vehicle: Klucel (hydroxypropylcellulose) (HPC) 91 % of control | dose: 200.0 mg/kg/injection, schedule: Q01DX005 (ip), vehicle: Klucel (hydroxypropylcellulose) (HPC) 98 % of control

COc1cc(/C=N/N2CC(=O)N(c3cccc(Cl)c3)CC2=O)cc(OC)c1
inactive: dose: 7.5 mg/kg/injection, schedule: Q01DX005 (ip), vehicle: saline with Tween-80 95 % of control | [13] 96 % of control | [14] 94 % of control

C/C(=N\O)C(C)(O)C(C)(C)C (centres undefined)
inactive: [11] 103 % of control | [12] 86 % of control | [15] 93 % of control

CCCCC(=O)NN
inactive: [10] 96 % of control | [11] 102 % of control | [12] 102 % of control

CCOC(=O)NCCCCl
inactive: [16] 99 % of control | [17] 101 % of control | [18] 107 % of control

Nc1cc2c(=O)c3cc(Cl)cc(Cl)c3[nH]c2c2c1C(=O)c1ccccc1C2=O
inactive: dose: 50.0 mg/kg/injection, schedule: Q01DX009 (ip), vehicle: Klucel (hydroxypropylcellulose) (HPC) 99 % of control | dose: 100.0 mg/kg/injection, schedule: Q01DX009 (ip), vehicle: Klucel (hydroxypropylcellulose) (HPC) 105 % of control | dose: 200.0 mg/kg/injection, schedule: Q01DX009 (ip), vehicle: Klucel (hydroxypropylcellulose) (HPC) 100 % of control

CC1(C)C=Cc2c(ccc(C(=O)Cc3ccccc3)c2O)O1
inactive: [7] 99 % of control | [8] 96 % of control | [9] 93 % of control

O=C(CCN1CCOCC1)Nc1ccc(F)cc1F
inactive: [7] 99 % of control | [8] 94 % of control | [9] 94 % of control

CCCCCCCCCCCCCCCCCCOP(=O)([O-])OCC[N+](C)(C)C
inactive: [19] 98 % of control | [20] 107 % of control

COCC(=O)c1ccc([N+](=O)[O-])cc1
inactive: [16] 98 % of control | [17] 103 % of control and 104 % of control | [18] 105 % of control and 111 % of control

O=C(NCCN1C(=O)C2C3CCC(O3)C2C1=O)Nc1ccc([N+](=O)[O-])cc1[N+](=O)[O-] (centres undefined)
inactive: [1] 91 % of control | [2] 91 % of control

CCC(=NCCCCCCN=C(CC)c1cc(C)cc([N+](=O)[O-])c1O)c1cc(C)cc([N+](=O)[O-])c1O.[Fe]
inactive: [1] 90 % of control | [2] 86 % of control | [3] 94 % of control

C(CCCSC1=NCCN1)CCSC1=NCCN1
inactive: [16] 103 % of control | [17] 100 % of control

Cc1ccc2cccc(OC(=O)Nc3cc(Cl)c(Cl)cc3Cl)c2n1
inactive: [13] 100 % of control | [14] 93 % of control | [1] 93 % of control | [3] 94 % of control

CCOC(=O)CC1(C)OCCO1
inactive: [16] 98 % of control | [17] 99 % of control | [18] 99 % of control | dose: 400.0 mg/kg/injection, schedule: Q01DX009 (ip), vehicle: saline 101 % of control

Nc1cc2c(cc1Br)-c1ccccc1C2=O
inactive: [12] 96 % of control | [15] 97 % of control | [21] 90 % of control

O=C(NC(=O)C(F)(F)F)Nc1cc(F)ccc1F
inactive: [12] 99 % of control | [15] 105 % of control | [21] 107 % of control

CC1CCCC/C1=N/SC(c1ccccc1)(c1ccccc1)c1ccccc1 (centres undefined)
inactive: [4] 91 % of control | [5] 89 % of control | [6] 87 % of control

CN(C)c1ccnc2c1cnn2C1OC(CO)C(O)C1O (centres undefined)
inactive: dose: 25.0 mg/kg/injection, schedule: Q01DX005 (ip), vehicle: saline with Tween-80 97 % of control | [7] 108 % of control | [8] 106 % of control

COc1cc(C(CC(C)=O)c2cc3c(cc2OC(C)=O)OCO3)cc(OC)c1OC(C)=O (centres undefined)
inactive: [1] 105 % of control | [2] 89 % of control

CCCCCCCCCC[N+](C)(C)CCCO
inactive: [19] 96 % of control | [20] 112 % of control | [16] 118 % of control
